From patent EP2072509A1, “1-Aryl-1H-quinoline-2-ones: process for their production and their use as anti-inflammatory agents” (Bayer Schering Pharma Aktiengesellschaft, priority 2007, dated 2009) come the findings set out here.

pIC50: −log10 of the molar value. Bounds are passed on as bounds.

One assay deals with cytokine IL-8. Put plainly: Inhibition of LPS-triggered IL-8 secretion in THP-1 cells (ELISA of supernatant). The format is cell-based. The following applies: Homo sapiens. As for the experimental part:
The concentration of the cytokines was determined in the supernatant by means of commercially available ELISA kits.
In general terms: An ELISA detects its analyte on a solid surface through an enzyme-linked reagent.

Assay [1] has as its target T1, progesterone receptor (PR) (Homo sapiens, UniProt P06401).
T1 construct: made in house
T1 sequence (P06401 1-933): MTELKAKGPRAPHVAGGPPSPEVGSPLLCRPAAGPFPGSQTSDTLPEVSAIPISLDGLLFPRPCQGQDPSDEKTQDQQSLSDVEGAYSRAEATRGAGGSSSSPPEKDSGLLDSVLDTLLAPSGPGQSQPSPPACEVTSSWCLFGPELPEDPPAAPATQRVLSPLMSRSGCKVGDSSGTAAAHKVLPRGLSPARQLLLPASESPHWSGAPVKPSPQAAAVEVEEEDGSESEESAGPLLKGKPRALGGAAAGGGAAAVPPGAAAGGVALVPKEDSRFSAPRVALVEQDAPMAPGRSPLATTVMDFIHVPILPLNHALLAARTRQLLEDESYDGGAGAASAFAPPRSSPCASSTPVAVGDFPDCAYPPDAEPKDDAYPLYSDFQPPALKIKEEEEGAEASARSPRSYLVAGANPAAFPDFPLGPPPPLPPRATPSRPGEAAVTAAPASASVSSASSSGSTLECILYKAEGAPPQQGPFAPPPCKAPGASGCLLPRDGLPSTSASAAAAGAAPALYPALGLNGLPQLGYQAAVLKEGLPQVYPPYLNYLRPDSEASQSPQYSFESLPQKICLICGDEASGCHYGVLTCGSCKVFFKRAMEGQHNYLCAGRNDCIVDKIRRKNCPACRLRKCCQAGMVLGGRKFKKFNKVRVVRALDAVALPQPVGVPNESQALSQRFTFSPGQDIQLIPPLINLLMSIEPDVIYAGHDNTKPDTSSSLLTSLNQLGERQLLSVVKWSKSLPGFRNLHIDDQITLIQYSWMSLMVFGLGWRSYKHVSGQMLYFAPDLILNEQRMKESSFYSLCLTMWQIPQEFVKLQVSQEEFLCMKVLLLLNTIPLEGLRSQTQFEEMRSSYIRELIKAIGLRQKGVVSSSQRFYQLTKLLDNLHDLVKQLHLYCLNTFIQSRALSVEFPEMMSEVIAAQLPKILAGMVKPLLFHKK
Put plainly: Binding to recombinantly produced progesterone receptor. From the text: (§1) The binding of the substances to the glucocorticoid receptor (GR) and other steroid hormone receptors (mineral corticoid receptor (MR), progesterone receptor (PR) and androgen receptor (AR)) is examined with the aid of recombinantly produced receptors. Cytosol preparations of Sf9 cells, which had been infected with recombinant baculoviruses, which code for the GR, are used for the binding studies. In comparison to reference substance [^3H]-dexamethasone, the substances show a high to very high affinity to GR.

The target of assay [2] is T2, glucocorticoid receptor (GR) (Homo sapiens, UniProt P04150).
T2 construct: made in house; host or cells: Sf9 cells infected with recombinant baculovirus (cytosol preparation)
T2 sequence (P04150 1-777): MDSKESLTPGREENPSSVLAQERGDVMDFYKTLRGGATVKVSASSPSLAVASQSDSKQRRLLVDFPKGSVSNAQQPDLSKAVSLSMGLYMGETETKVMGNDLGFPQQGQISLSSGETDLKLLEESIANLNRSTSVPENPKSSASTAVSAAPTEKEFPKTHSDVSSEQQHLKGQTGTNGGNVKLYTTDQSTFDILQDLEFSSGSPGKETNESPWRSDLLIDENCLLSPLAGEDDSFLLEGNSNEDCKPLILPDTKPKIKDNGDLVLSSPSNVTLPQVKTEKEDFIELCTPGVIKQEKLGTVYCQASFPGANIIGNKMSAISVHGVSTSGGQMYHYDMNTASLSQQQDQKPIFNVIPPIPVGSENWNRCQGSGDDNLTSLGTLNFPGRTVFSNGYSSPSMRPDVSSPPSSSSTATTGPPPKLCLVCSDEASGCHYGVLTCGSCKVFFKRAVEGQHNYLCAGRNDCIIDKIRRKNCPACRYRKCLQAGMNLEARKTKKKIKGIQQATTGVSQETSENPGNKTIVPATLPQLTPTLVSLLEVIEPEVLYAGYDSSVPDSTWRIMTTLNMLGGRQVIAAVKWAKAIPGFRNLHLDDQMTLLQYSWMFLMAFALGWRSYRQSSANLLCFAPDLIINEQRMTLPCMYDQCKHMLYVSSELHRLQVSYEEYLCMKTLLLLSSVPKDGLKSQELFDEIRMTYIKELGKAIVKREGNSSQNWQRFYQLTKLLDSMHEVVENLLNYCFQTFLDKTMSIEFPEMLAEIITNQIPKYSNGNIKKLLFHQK
Put plainly: Binding to recombinantly produced glucocorticoid receptor (cytosol of baculovirus-infected Sf9 cells, [3H]-dexamethasone as reference). The following applies: recombinant GR, Sf9 cytosol preparations.
Excerpt: as §1

The target in another assay is T3, androgen receptor (AR) (Homo sapiens, UniProt P10275).
T3 construct: made in house
T3 sequence (P10275 1-920): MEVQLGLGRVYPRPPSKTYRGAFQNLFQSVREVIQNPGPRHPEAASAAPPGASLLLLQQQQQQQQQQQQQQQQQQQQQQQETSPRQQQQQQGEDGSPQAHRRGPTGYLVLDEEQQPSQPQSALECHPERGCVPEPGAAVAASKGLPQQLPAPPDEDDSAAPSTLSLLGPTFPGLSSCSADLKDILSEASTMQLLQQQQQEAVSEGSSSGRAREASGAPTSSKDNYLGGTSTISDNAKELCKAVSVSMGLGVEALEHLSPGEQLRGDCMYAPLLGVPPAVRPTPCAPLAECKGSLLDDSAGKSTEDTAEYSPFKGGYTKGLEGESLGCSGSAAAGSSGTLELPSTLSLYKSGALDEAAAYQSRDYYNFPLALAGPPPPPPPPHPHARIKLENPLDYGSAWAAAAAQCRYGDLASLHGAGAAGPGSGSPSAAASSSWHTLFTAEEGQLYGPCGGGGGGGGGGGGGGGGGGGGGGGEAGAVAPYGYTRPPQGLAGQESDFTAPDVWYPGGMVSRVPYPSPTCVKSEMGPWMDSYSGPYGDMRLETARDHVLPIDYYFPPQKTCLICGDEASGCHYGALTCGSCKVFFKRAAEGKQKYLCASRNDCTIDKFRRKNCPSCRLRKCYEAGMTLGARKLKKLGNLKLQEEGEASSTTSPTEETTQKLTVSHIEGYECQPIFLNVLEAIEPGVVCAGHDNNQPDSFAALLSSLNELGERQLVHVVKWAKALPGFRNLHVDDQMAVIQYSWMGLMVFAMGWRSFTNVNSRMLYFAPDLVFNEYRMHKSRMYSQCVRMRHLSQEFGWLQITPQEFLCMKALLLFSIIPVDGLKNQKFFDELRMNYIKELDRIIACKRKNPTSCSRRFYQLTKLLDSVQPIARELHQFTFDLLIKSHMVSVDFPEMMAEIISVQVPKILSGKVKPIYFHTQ
Put plainly: Binding to recombinantly produced androgen receptor.
Excerpt: as §1

Another assay has as its target ER. Put plainly: Binding to ER (steroid receptor selectivity profile).
The target in assay [3] is T4, mineral corticoid receptor (MR) (Homo sapiens, UniProt P08235).
T4 construct: made in house
T4 sequence (P08235 1-984): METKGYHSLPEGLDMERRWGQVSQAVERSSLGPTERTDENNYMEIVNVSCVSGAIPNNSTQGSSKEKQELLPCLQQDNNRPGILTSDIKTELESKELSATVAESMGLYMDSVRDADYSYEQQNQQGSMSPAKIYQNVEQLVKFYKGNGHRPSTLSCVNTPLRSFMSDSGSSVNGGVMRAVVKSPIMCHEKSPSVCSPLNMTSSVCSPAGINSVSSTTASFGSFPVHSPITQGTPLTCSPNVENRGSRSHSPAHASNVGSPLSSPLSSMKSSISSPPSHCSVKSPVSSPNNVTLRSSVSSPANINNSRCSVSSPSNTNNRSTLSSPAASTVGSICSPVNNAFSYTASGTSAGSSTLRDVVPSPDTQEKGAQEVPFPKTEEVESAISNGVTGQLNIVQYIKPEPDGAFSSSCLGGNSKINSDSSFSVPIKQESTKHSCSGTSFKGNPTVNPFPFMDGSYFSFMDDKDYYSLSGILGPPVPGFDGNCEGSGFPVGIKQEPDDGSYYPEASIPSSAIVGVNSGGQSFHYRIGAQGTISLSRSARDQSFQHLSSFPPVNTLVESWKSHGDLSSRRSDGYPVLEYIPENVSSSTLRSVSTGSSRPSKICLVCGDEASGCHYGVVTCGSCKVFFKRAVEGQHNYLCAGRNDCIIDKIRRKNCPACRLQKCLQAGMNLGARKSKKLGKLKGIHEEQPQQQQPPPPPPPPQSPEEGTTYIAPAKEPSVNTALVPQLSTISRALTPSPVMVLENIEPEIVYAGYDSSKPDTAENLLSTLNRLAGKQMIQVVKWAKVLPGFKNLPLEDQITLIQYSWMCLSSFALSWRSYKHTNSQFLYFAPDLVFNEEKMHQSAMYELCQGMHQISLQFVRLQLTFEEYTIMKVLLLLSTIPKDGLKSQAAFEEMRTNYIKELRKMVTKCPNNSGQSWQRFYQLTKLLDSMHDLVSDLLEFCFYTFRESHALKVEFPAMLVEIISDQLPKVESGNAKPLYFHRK
Put plainly: Binding to recombinantly produced mineral corticoid receptor.
Excerpt: as §1

What is called pIC50 is the negative decadic logarithm of the IC50, by convention in mol/L. Turning to `COc1c(C(C)C)ccc2c1C(C)(C)CC(O)(C(F)(F)F)C2Nc1cccc2c1ccc(=O)n2-c1ccc(F)nc1` (stereo not shown) [Example 1, 5-{[2-Hydroxy-6-isopropyl-5-methoxy-4,4-dimethyl-2-(trifluoromethyl)-1,2,3,4-tetrahydronaphthalene-1-yl]amino}-1-(6-fluoropyridine-3-yl)-1H-quinoline-2-one], the pIC50 with cytokine IL-8 (LPS-triggered IL-8 secretion, read-out: IC50(IL8)) is 7.52. The Emax in the assay on cytokine IL-8 (efficacy of IL-8 inhibition, LPS, read-out: eff. relative to dexamethasone) stood at 84.1%.
In the case of `CC(C)c1ccc2c(c1O)C(C)(C)CC(O)(C(F)(F)F)C2Nc1cccc2c1ccc(=O)n2-c1ccc(F)nc1` (stereo not shown) [Example 2, 5-{[2,5-Dihydroxy-6-isopropyl-4,4-dimethyl-2-(trifluoromethyl)-1,2,3,4-tetrahydronaphthalene-1-yl]amino}-1-(6-fluoropyridine-3-yl)-1H-quinoline-2-one], the pIC50 in assay [1] was less than 6.00; in assay [2], 7.49; on androgen receptor (AR) it was less than 6.00; on ER it was less than 6.00; in assay [3], less than 6.00.
